Among the data in patent US20110178053A1, “AZACARBOLINE DERIVATIVES, PREPARATION METHOD THEREOF AND THERAPEUTIC USE OF SAME” (SANOFI-AVENTIS, priority 2008, published 2011) are IC50 values, retold here.

Common to all, as to format: biochemical
In one experiment the target is T1, Pim-2 (Homo sapiens, UniProt Q9P1W9).
T1 construct: His6-labelled recombinant full-length human Pim-1, Pim-2 or Pim-3 protein; His6; made in house
Nature of the experiment: TR-FRET assay, Pim-2 kinase (phosphorylation of Bad Ser112). As to conditions: read-out: IC50 Pim2. Here is the method: (§1) In order to determine the inhibition of activation of Pim kinases, the compounds of the invention are tested in accordance with a routinely used in vitro TR-FRET assay (Time-Resolved Fluorescence Resonance Energy Transfer). […] For the assay, the following reagents are used:
(§2) Pim kinase—His6-labelled recombinant full-length human Pim-1, Pim-2 or Pim-3 protein (prepared according to J. Mol. Biol. (2005) 348, 183-193); Bad—His6-labelled recombinant full-length human Bad protein (prepared according to J. Mol. Biol. (2005) 348, 183-193); α-His6-APC—murine monoclonal antibody conjugated to allophycocyanin SureLight™ directed against the His6 label (Perkin-Elmer, No. AD0059H, Waltham, Mass., United States); • β-P˜Bad-Eu—murine monoclonal antibody (Cell Signaling Technology #9296B, Danvers, Mass., United States) directed against phosphoBad (Ser112) (7E11) custom-labelled by Perkin-Elmer with the reagent LANCE™ Eu-W1024.
(§3) The assay is based on Perkin-Elmer's LANCE™ technology: the Eu-labelled antibody binds to phospho-Ser112 and generates a TR-FRET signal by interaction with the APC-labelled antibody directed against His6, bound to the His6 label of Bad. The TR-FRET signal is detected using a SpectraMax M5 plate reader (Molecular Devices) with the following settings: λex=340 nm, λem1=615 nm, λem2=665 nm. The ratio of the fluorescence signal at 665 nm to the fluorescence signal at 615 nm is used as the signal reading for the IC50 (calculation is based on the 4-parameter logistic model). The assay is performed in a 384-well format; the liquid manipulations are performed using a Beckman 3000 liquid manipulations station. The test compounds are tested at 10 concentration points in duplicate; the highest compound concentration is typically equal to 30 μM. The ATP concentration is equal to 40 μM, which is equivalent to the apparent KM value.

Another experiment concerns the target T2, Pim-3 (Homo sapiens, UniProt Q86V86).
T2 construct: His6-labelled recombinant full-length human Pim-1, Pim-2 or Pim-3 protein; His6; made in house
The experiment in a line: TR-FRET assay, Pim-3 kinase (phosphorylation of Bad Ser112). As to conditions: read-out: IC50 Pim3. The method, then:
as §1, §2, §3

A further experiment has as its target T3, Pim-1 (Homo sapiens, UniProt P11309).
T3 construct: His6-labelled recombinant full-length human Pim-1, Pim-2 or Pim-3 protein; His6; made in house
The experiment in a line: TR-FRET assay, Pim-1 kinase (phosphorylation of Bad Ser112). As to conditions: read-out: IC50 Pim1. The method, then:
as §1, §2, §3

The mark [1] stands for this setting: comparative compounds (Compound No., not claimed).

pIC50: −log10 of the molar value. Read-outs that look alike come from different tables or passages of the source.

T3 sequence (P11309 whole entry): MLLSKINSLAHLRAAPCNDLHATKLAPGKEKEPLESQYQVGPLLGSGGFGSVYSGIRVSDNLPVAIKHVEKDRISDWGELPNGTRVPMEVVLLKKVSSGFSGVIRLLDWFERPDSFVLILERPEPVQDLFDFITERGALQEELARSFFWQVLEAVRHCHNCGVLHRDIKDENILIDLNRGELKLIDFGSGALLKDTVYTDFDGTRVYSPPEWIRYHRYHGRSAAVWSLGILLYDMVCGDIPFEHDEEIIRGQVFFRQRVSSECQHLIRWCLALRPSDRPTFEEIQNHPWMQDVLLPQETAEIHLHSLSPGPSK
T1 sequence (Q9P1W9 whole entry): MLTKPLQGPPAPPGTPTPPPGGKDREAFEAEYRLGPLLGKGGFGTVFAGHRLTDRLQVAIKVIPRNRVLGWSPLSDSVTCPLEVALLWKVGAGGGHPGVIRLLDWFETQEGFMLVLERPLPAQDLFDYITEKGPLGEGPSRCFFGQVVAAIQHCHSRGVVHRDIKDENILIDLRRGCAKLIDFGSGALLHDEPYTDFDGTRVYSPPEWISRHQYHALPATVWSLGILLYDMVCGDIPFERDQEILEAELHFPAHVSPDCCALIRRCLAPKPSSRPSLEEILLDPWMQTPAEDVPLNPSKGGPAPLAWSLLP

With `c1cncc(-c2cc3c(cn2)[nH]c2ncc(-c4ccc(OCCn5ccnc5)cc4)cc23)c1` [Example 150, 3-{4-[2-(1H-imidazol-1-yl)ethoxy]phenyl}-6-(pyrid-3-yl)-9H-pyrrolo[2,3-b:5,4-c′]-dipyridine], the pIC50 is 6.00 to 7.00 at Pim-2 (TR-FRET, ATP 40 μM); 7.00 to 9.00 on Pim-3 (TR-FRET, ATP 40 μM); 7.00 to 9.00 at Pim-1 (TR-FRET, ATP 40 μM).

In the case of `Oc1ccc(-c2cnc3[nH]c4cnc(-c5cccnc5)cc4c3c2)cc1` [Example 151, 4-[6-(pyrid-3-yl)-9H-pyrrolo[2,3-b:5,4-c′]dipyrid-3-yl]phenol], the pIC50 is 6.00 to 7.00 at Pim-2 (TR-FRET, ATP 40 μM); 7.00 to 9.00 on Pim-3 (TR-FRET, ATP 40 μM); 7.00 to 9.00 at Pim-1 (TR-FRET, ATP 40 μM).

Regarding `COc1cc2c(cn1)[nH]c1cnc(-c3cccnc3)cc12` [Compound 51], the pIC50 at Pim-2 (setting [1]), on Pim-3 (setting [1]) and at Pim-1 (setting [1]) was below 5.30 in each case.

Consider `CCN(CC)CCOc1cccc(-c2cnc3[nH]c4cnc(-c5cccnc5)cc4c3c2)c1` [Example 153, N,N-diethyl-2-{3-[6-(pyrid-3-yl)-9H-pyrrolo[2,3-b:5,4-c′]dipyrid-3-yl]phenoxy}ethan-amine], for which the pIC50 was 5.30 to 6.00 at Pim-2 (TR-FRET, ATP 40 μM); 7.00 to 9.00 at Pim-3 (TR-FRET, ATP 40 μM); 7.00 to 9.00 at Pim-1 (TR-FRET, ATP 40 μM).

Consider `Fc1cnc2[nH]c3cnc(-c4cccnc4)cc3c2c1-c1cn[nH]c1` [Example 71, 3-fluoro-4-(1H-pyrazol-4-yl)-6-(pyrid-3-yl)-9H-pyrrolo[2,3-b:5,4-c′]-dipyridine], for which the pIC50 was 6.00 to 7.00 at Pim-2 (TR-FRET, ATP 40 μM); 6.00 to 7.00 at Pim-3 (TR-FRET, ATP 40 μM); 7.00 to 9.00 at Pim-1 (TR-FRET, ATP 40 μM).

Turning to `Brc1cnc2[nH]c3cnc(-c4cccnc4)cc3c2c1` [Example 9, 3-bromo-6-(pyrid-3-yl)-9H-pyrrolo[2,3-b:5,4-c′]dipyridine], the pIC50 was 5.30 to 6.00 at Pim-2 (TR-FRET, ATP 40 μM); 6.00 to 7.00 at Pim-3 (TR-FRET, ATP 40 μM); 6.00 to 7.00 on Pim-1 (TR-FRET, ATP 40 μM).

On to `Fc1cnc2[nH]c3cnc(-c4cccnc4)cc3c2c1N1CCCCC1` [Example 76, 3-fluoro-4-(piperid-1-yl)-6-(pyrid-3-yl)-9H-pyrrolo[2,3-b:5,4-c′]dipyridine], for which the pIC50 at Pim-2 (TR-FRET, ATP 40 μM) is 6.00 to 7.00; on Pim-3 (TR-FRET, ATP 40 μM) it was 7.00 to 9.00; at Pim-1 (TR-FRET, ATP 40 μM), 7.00 to 9.00.

In the case of `COc1c(F)cnc2[nH]c3cnc(-c4cccnc4)cc3c12` [Example 105, 3-fluoro-4-methoxy-6-(pyrid-3-yl)-9H-pyrrolo[2,3-b:5,4-c′]dipyridine], the pIC50 on Pim-2 (TR-FRET, ATP 40 μM) is below 5.30; at Pim-3 (TR-FRET, ATP 40 μM) it was 6.00 to 7.00; at Pim-1 (TR-FRET, ATP 40 μM), 7.00 to 9.00.

Take `CS(=O)(=O)Nc1cccc(-c2c(F)cnc3[nH]c4cnc(-c5cccnc5)cc4c23)c1` [Example 53, N-{3-[3-fluoro-6-(pyrid-3-yl)-9H-pyrrolo[2,3-b:5,4-c′]-dipyrid-4-yl]phenyl}-methanesulfonamide]: the pIC50 is 5.30 to 6.00 at Pim-2 (TR-FRET, ATP 40 μM); 6.00 to 7.00 on Pim-3 (TR-FRET, ATP 40 μM); 7.00 to 9.00 at Pim-1 (TR-FRET, ATP 40 μM).

Regarding `C=CCn1cc(-c2cc3c(cn2)[nH]c2nccc(-c4ccc(C(=O)OC)cc4)c23)cn1` [Example 170, methyl 4-{6-[1-(prop-2-en-1-yl)-1H-pyrazol-4-yl]-9H-pyrrolo[2,3-b:5,4-c′]dipyrid-4-yl}benzoate], the pIC50 is 6.00 to 7.00 at Pim-2 (TR-FRET, ATP 40 μM); 6.00 to 7.00 on Pim-3 (TR-FRET, ATP 40 μM); 7.00 to 9.00 on Pim-1 (TR-FRET, ATP 40 μM).

With `CCN(CC)CCCn1cc(-c2cc3c(cn2)[nH]c2ncc(OC)cc23)cn1` [Example 166, N,N-diethyl-3-[4-(3-methoxy-9H-pyrrolo[2,3-b:5,4-c′]dipyrid-6-yl)-1H-pyrazol-1-yl]-propan-1-amine], the pIC50 at Pim-2 (TR-FRET, ATP 40 μM) was below 5.30; on Pim-3 (TR-FRET, ATP 40 μM), 5.30 to 6.00; at Pim-1 (TR-FRET, ATP 40 μM), 6.00 to 7.00.

With `CN(C)CCCOc1ccc(-c2cnc3[nH]c4cnc(-c5cccnc5)cc4c3c2)cc1` [Example 146, N,N-dimethyl-3-{4-[6-(pyrid-3-yl)-9H-pyrrolo[2,3-b:5,4-c′]dipyrid-3-yl]phenoxy}-propan-1-amine], the pIC50 was 6.00 to 7.00 on Pim-2 (TR-FRET, ATP 40 μM); 7.00 to 9.00 on Pim-3 (TR-FRET, ATP 40 μM); 7.00 to 9.00 at Pim-1 (TR-FRET, ATP 40 μM).
